Where a name gives a salt, the structure may show the parent alone. Read-outs that look alike come from different tables or passages of the source. Non-standard residues stand in square brackets, D forms with d. Residues, ends and D or L forms follow the SMILES beside them. Dopa = N[C@@H](Cc1ccc(O)c(O)c1)C(=O)O
Key:
[1] = physchem; type: physicochemical
Procedure: The volume of the solution in the bottle was adjusted to 5 ml, either by adding solvent, or be removing any residual solution, after which the bottle was tightly closed and left at 25° C. for stability observation. It is noted that throughout Example 4, the concentrations in the tables below were calculated taking into account the amount of solvent added or the solution removed, in which event, the calculations were performed regarding the 5 ml+(amount removed) as the volume of the solution. It is further noted that throughout this document, unless mentioned otherwise, the stability was measured using the manual visual inspection Bosch apparatus MIH DX, at a magnification of ×1.75.
(§1) The LD-Tyr free base, prepared according to Example 2, was added to a solvent, as detailed in Table 7 below, and neutralized by addition of NaOH. When maximum solubility was observed, the solution was filtered and then transferred to a bottle that was previously weighed and flushed with nitrogen. The volume of the solution in the bottle was adjusted to 5 ml, after which the bottle was tightly closed and left at 25° C. for stability observation.
(§2) When maximum solubility was observed, the solution was filtered and then transferred to a bottle that was previously weighed and flushed with nitrogen. The volume of the solution in the bottle was adjusted to 5 ml, after which the bottle was tightly closed and left at 25° C. for stability observation.
as §2, with “stored” for “left”
as §2, with “stored” for “left”
as §1, with “LD-Lys TFA salt,” for “The LD-Tyr free base,”, “1, and which comprises two equivalents of TFA,” for “2,”, “11” for “7”, “stored” for “left”
as §2, with “As detailed above regarding other solutions, with the LD-Tyr free base when” for “When”
as §1, with “LD-Lys HCl salt,” for “The LD-Tyr free base,”, “3,” for “2,”, “13” for “7”, “by the” for “by”

[2] = In-vitro metabolism of LDAA compounds using liver microsomes; type: in vitro ADME, human; settings: for half-life at 0.1 μM: pH 7.4, 1.0E−07M, 0.1 mg/mL microsomal protein
Procedure: The stability of test compounds in pooled human liver microsomes was determined on 96-well plates, wherein the test compounds were quantified at five time points by HPLC-MS/MS analysis. The assay matrix included mixed gender and a pool of 50 human liver microsomes, wherein the final microsomal protein concentration was 0.1 mg/mL. The test concentration was 0.1 μM with 0.01% DMSO, 0.25% acetonitrile and 0.25% methanol.
Each test compound was pre-incubated for five minutes with pooled liver microsomes in phosphate buffer (pH 7.4) in a 37° C. shaking water-bath. The reaction was initiated by adding a nicotinamide adenine dinucleotide phosphate (NADPH)-generating system and incubating for 0, 15, 30, 45, and 60 min. The reaction was stopped by transferring the incubation mixture to acetonitrile/methanol. Samples were then mixed and centrifuged, wherein the supernatants were used for HPLC-MS/MS analysis.
In each assay the four reference compounds propranolol, imipramine, verapamil and terfenadine were tested, wherein the propranolol and the imipramine are known to be relatively stable, while the verapamil and the terfenadine are known to be readily metabolized in human liver microsomes.
All samples were analyzed by HPLC-MS/MS using selected reaction monitoring. The HPLC system consisted of a binary LC pump with autosampler, a C-18 column, and a gradient. The conditions were adjusted when necessary.
Peak areas corresponding to the test compound were recorded. The amount of each compound remaining was calculated by comparing the peak area at each time point to time zero. The half-life is calculated from the slope of the initial linear range of the logarithmic curve of compound remaining (%) vs. time, assuming first order kinetics. In addition, the intrinsic clearance (Clint) was calculated from the half-life using the following equation:
Clint(μL/min/mg protein)=0.693/(t1/2×protein concentration)
The results of the in-vitro human liver microsome metabolism tests of various LDAA compounds (10^−7M), in their TFA salt forms, are provided in FIG. 1 and in Table 17, which presents the % of the compound remaining at times 0, 15, 30, 45 and 60 minutes, two half-life measurements and the Clint, calculated as detailed above.

[3] = in vitro; settings: human
Procedure: Caco-2 cells are human intestinal epithelial cells derived from a colorectal adenocarcinoma.
The assays are performed in both the apical to basolateral (A-B) and the B-A direction. The test compound is prepared at 10 μM in HBSS-HEPES (pH 7.4) with a final DMSO concentration of 1%. The working solution is centrifuged, and the supernatant is added to the donor side. The assay plate is incubated at 37° C. with gentle shaking for 60 min or 40 min for the A-B or B-A assay, respectively. For Pgp substrate assessment, the assays are run with and without 100 μM verapamil on both the A and B sides. For BCRP substrate assessment, the assays are run with and without 10 μM Ko143 on both the A and B sides. For MRP2 substrate assessment, the assays are run with and without 100 μM MK571 on both the A and B sides. Samples are aliquoted from the donor side at time zero and the end point, and from the receiver side at the end point.
Propranolol (highly permeable), labetalol (moderately permeable), ranitidine (poorly permeable), and colchicine (P-glycoprotein substrate), estrone-3-sulfate (BCRP substrate), or CDCF (MRP2 substrate) are included in each assay.
Samples are analyzed by HPLC-MS/MS using selected reaction monitoring. The HPLC system consists of a binary LC pump with an autosampler, a C-18 column, and a gradient. Conditions may be adjusted when necessary.
Fluorescein permeability is assessed in the A-B direction at pH 7.4 on both sides after the permeability assay with the test compound. The cell monolayer with a fluorescein permeability of less than 1.5×10−6 cm/s is considered intact.
The apparent permeability coefficient (Papp) of the test compound and its recovery are calculated as follows: […]
A is the surface area of the cell monolayer (0.11 cm^2). C is concentration of the test compound, expressed as peak area. D denotes donor and R is receiver. 0, mid, and end denote time zero, mid-point, and end of the incubation. Δt is the incubation time. V is the volume of the donor or receiver.
The permeability capabilities of the several LDAA compounds, in their TFA salt form, were determined using the Caco-2 B-A method.

[4] = tested on: P-gp; assay: In-vitro absorption, Caco-2 A-B permeability; type: in vitro ADME, human; settings: human, Caco-2, pH 7.4, with verapamil 100 μM on both the A and B sides, Caco-2 A-B, in the presence of verapamil
Procedure: (§3) Conditions may be adjusted when necessary.
(§4) D denotes donor and R is receiver. […] V is the volume of the donor or receiver.
(§5) The test was performed with and without verapamil, which is a permeation inhibitor, and the results are presented in Tables 22 (without verapamil) and 34 (with verapamil).

[5] = In-vitro absorption, Caco-2 A-B permeability; type: in vitro ADME, human; settings: human, Caco-2, pH 7.4, Caco-2 A-B, without verapamil; for Papp A→B at 60 min, 10 μM: 1.0E−05M
Procedure: as §3, §4, §5

[6] = solvent 0.63% CD solution, pH 7.71
[7] = incubation time 0 minutes, 1.0E−07M
[8] = incubation time 15 minutes, 1.0E−07M
[9] = incubation time 30 minutes, 1.0E−07M
[10] = incubation time 45 minutes, 1.0E−07M
[11] = incubation time 60 minutes, 1.0E−07M
[12] = read-out: Percent Recovery Mean
[13] = solvent 0.75% CD solution, pH 8.65

**Q.** For `N=C(N)NCCC[C@H](NC(=O)[C@@H](N)Cc1ccc(O)c(O)c1)C(=O)O` [LD-Arg HCl salt], which Appearance ([1]; 0.2% NaBis in WFI, pH 7.02, 550 mg/ml salt) is on record?
**A.** clear

**Q.** What about the Appearance ([1]; 0.63% CD solution, pH 7.71, 520 mg/ml salt) of the same compound?
**A.** clear

**Q.** And the solubility thermodynamic ([1]; 25 °C, aqueous buffer, thermodynamic from solid, solvent 0.2% NaBis in WFI, pH 7.02)?
**A.** 550 mg/mL

**Q.** And the Appearance ([1]; WFI, pH 7.3, 500 mg/ml salt)?
**A.** clear

**Q.** And the “LD-Arg free base Concentration” value ([1]; solvent 0.2% NaBis in WFI, pH 7.02)?
**A.** 440 mg/mL

**Q.** And the “LD-Arg HCl salt concentration” value [1, 6]?
**A.** 520 mg/mL

**Q.** What about the “LD-Arg free base Concentration” value [1, 6] of the same compound?
**A.** 420 mg/mL

**Q.** And the “LD-Arg HCl salt concentration” value ([1]; solvent WFI, pH 7.3)?
**A.** 500 mg/mL

**Q.** And the “LD-Arg free base Concentration” value ([1]; solvent WFI, pH 7.3)?
**A.** 390 mg/mL

**Q.** With `N[C@@H](Cc1ccc(O)c(O)c1)C(=O)NCC(=O)O` [LD-Gly TFA salt, Levodopa Glycine TFA Salt] as the compound, how does the half-life at 0.1 μM ([2]; both sexes, human, pooled human liver microsomes, read-out: Half-Life (minute) 1st) read?
**A.** 54.5 min

**Q.** What about the half-life at 0.1 μM ([2]; both sexes, human, pooled human liver microsomes, read-out: Half-Life (minute) 2nd) of the same compound?
**A.** 54.1 min

**Q.** What about the half-life at 0.1 μM ([2]; both sexes, human, pooled human liver microsomes, read-out: Half-Life (minute) Mean) of the same compound?
**A.** 54 min

**Q.** And the microsomal CLint at 0.1 μM ([2]; both sexes, human, pooled human liver microsomes, pH 7.4, calculated from the half-life, 1.0E−07M)?
**A.** 128 µL/min/mg

**Q.** And the “% Compound Remaining 1st” value [2, 7]?
**A.** 100%

**Q.** What about the “% Compound Remaining 2nd” value [2, 7] of the same compound?
**A.** 100%

**Q.** What about the “% Compound Remaining Mean” value [2, 7] of the same compound?
**A.** 100%

**Q.** What about the “% Compound Remaining 1st” value [2, 8] of the same compound?
**A.** 103.7%

**Q.** And the “% Compound Remaining 2nd” value [2, 8]?
**A.** 108.1%

**Q.** And the “% Compound Remaining Mean” value [2, 8]?
**A.** 106%

**Q.** And the “% Compound Remaining 1st” value [2, 9]?
**A.** 86.7%

**Q.** What about the “% Compound Remaining 2nd” value [2, 9] of the same compound?
**A.** 77.9%

**Q.** What about the “% Compound Remaining Mean” value [2, 9] of the same compound?
**A.** 82%

**Q.** And the “% Compound Remaining 1st” value [2, 10]?
**A.** 57.5%

**Q.** What about the “% Compound Remaining 2nd” value [2, 10] of the same compound?
**A.** 56.4%

**Q.** What about the “% Compound Remaining Mean” value [2, 10] of the same compound?
**A.** 57%

**Q.** And the “% Compound Remaining 1st” value [2, 11]?
**A.** 51.7%

**Q.** And the “% Compound Remaining 2nd” value [2, 11]?
**A.** 52.9%

**Q.** And the “% Compound Remaining Mean” value [2, 11]?
**A.** 52%

**Q.** What about the recovery at 40 min, 10 μM ([3]; Caco-2, pH 7.4, Percent Recovery 1st) of the same compound?
**A.** 93%

**Q.** And the recovery at 40 min, 10 μM ([3]; Caco-2, pH 7.4, Percent Recovery 2nd)?
**A.** 78%

**Q.** What about the recovery at 40 min, 10 μM ([3]; Caco-2, pH 7.4, Percent Recovery Mean) of the same compound?
**A.** 85%

**Q.** And the Papp B→A at 40 min, 10 μM ([3]; Caco-2, pH 7.4, Permeability 1st)?
**A.** 0.38 ×10⁻⁶ cm/s

**Q.** And the Papp B→A at 40 min, 10 μM ([3]; Caco-2, pH 7.4, Permeability 2nd)?
**A.** 0.33 ×10⁻⁶ cm/s

**Q.** And the Papp B→A at 40 min, 10 μM ([3]; Caco-2, pH 7.4, Permeability Mean)?
**A.** 0.4 ×10⁻⁶ cm/s

**Q.** And the recovery at 60 min, 10 μM ([4]; read-out: Percent Recovery 1st)?
**A.** 60%

**Q.** And the recovery at 60 min, 10 μM ([4]; read-out: Percent Recovery 2nd)?
**A.** 59%

**Q.** What about the recovery at 60 min, 10 μM [4, 12] of the same compound?
**A.** 59%

**Q.** What about the Papp A→B at 60 min, 10 μM ([5]; read-out: Permeability 1st) of the same compound?
**A.** 0.03 ×10⁻⁶ cm/s

**Q.** And the Papp A→B at 60 min, 10 μM ([5]; read-out: Permeability 2nd)?
**A.** 0.02 ×10⁻⁶ cm/s

**Q.** And the recovery at 60 min, 10 μM ([5]; read-out: Percent Recovery 1st)?
**A.** 65%

**Q.** What about the recovery at 60 min, 10 μM ([5]; read-out: Percent Recovery 2nd) of the same compound?
**A.** 62%

**Q.** What about the recovery at 60 min, 10 μM [5, 12] of the same compound?
**A.** 64%

**Q.** Which Appearance ([1]; 0.75% CD solution, pH 8.65, 297 mg/ml salt) does the source give for `N[C@@H](Cc1ccc(O)c(O)c1)C(=O)N[C@@H](Cc1ccc(O)cc1)C(=O)O` [LD-Tyr HCl salt] (H-[Dopa]-Tyr-OH) here?
**A.** clear

**Q.** What about the Appearance ([1]; WFI, pH 8.46, 300 mg/ml salt) of the same compound?
**A.** clear

**Q.** And the “LD-Tyr HCl salt concentration” value [1, 13]?
**A.** 297 mg/mL

**Q.** And the “LD-Tyr free base Concentration” value [1, 13]?
**A.** 257 mg/mL

**Q.** And the “LD-Tyr HCl salt concentration” value ([1]; solvent WFI, pH 8.46)?
**A.** 300 mg/mL

**Q.** And the “LD-Tyr free base Concentration” value ([1]; solvent WFI, pH 8.46)?
**A.** 260 mg/mL

Source: patent US20220362386A1, “LIQUID COMPOSITIONS COMPRISING A LEVODOPA AMINO ACID CONJUGATE AND USES THEREOF” (NeuroDerm, Ltd., priority 2019, published 2022)
